From patent US12467085B2, “High accuracy nanopore-based single molecule sequencing by synthesis with tagged nucleotides” (priority 2019, dated 2025) come the findings set out here.

For this test, the target named is Phi29-type DNA polymerase (Bacillus phage phi29, UniProt P03680). Nature of the test: Dissociation constants of nucleotides with polymerase by fluorescence assays. Type of test: binding. The note with it: for Kd: fluorescence assays, natural and unincorporable nucleotides. The text has this:
Disclosed herein is a determination of a number of enzymatic parameters including substrate binding and dissociation constants (examples in Table 1) under a variety of conditions and with a variety of nucleotide analogs (NTPs, N6Ps, tagged N6Ps, α-thio and α,β-methylene nucleotide polyphosphates). In addition to these compounds, disclosed herein are fluorescent nucleotide analogs and unincorporable (α-thio) nucleotides that were designed and synthesized for the polymerase tests to develop new Nanopore-SBS approaches as described below.

Read-outs that look alike come from different tables or passages of the source.

Phi29-type DNA polymerase, sequence (P03680 whole entry): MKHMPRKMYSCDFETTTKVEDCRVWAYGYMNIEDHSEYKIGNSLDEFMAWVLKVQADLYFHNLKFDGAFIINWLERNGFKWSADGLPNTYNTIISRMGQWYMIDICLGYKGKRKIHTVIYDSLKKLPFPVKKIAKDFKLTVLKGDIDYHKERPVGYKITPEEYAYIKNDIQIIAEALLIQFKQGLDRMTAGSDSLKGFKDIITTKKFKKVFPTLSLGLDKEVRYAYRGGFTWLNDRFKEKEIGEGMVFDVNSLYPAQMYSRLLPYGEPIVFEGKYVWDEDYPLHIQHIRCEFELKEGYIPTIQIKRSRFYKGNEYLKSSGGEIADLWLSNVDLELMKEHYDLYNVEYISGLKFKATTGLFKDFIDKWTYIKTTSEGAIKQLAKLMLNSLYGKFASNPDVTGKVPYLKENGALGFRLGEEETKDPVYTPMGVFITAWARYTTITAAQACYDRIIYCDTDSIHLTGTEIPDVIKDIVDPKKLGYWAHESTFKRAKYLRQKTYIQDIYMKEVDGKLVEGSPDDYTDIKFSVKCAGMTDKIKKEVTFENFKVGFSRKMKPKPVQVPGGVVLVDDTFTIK

What is called Kd is a measure of binding affinity in units of concentration. Consider `Nc1ccn(C2CC(O)C(COP(O)(=S)OP(=O)(O)OP(=O)(O)O)O2)c(=O)n1` (stereo not drawn) [2′-dCTP-αS (Rp-isomer), 2′-dCTP-αS], for which the affinity, expressed as Kd, was 750 nM. Molecule `Nc1ccn(C2CC(O)C(COP(O)(=S)OP(=O)(O)OP(=O)(O)O)O2)c(=O)n1` (stereo not drawn) [2′-dCTP-αS (Sp-isomer), 2′-dCTP-αS] had a Kd of 1 nM. The molecule `Nc1nc2c(ncn2C2CC(O)C(COP(O)(=S)OP(=O)(O)OP(=O)(O)O)O2)c(=O)[nH]1` (stereo not drawn) [2′-dGTP-αS (Rp-isomer), 2′-dGTP-αS] came in with a Kd of 910 nM. On the same count and under the same terms, to `Nc1nc2c(ncn2C2CC(O)C(COP(O)(=S)OP(=O)(O)OP(=O)(O)O)O2)c(=O)[nH]1` (stereo not drawn) [2′-dGTP-αS (Sp-isomer), 2′-dGTP-αS] belongs 6 nM; to `Nc1ccn(C2CC(O)C(COP(=O)(O)OP(=O)(O)OP(=O)(O)O)O2)c(=O)n1` (stereo not drawn) [dCTP, reference compound], about 5 nM. On to `Nc1ccn(C2CC(O)C(COP(=O)(O)CP(=O)(O)OP(=O)(O)O)O2)c(=O)n1` (stereo not drawn) [dCp-CH2-pp, reference compound], for which the Kd amounted to 25000 nM. Where the note is “in words, compared with the other nucleotides”, the “binding to the polymerase in the ternary complex” value was “do not bind as tightly”. Molecule `Nc1nc2c(ncn2C2CC(O)C(COP(=O)(O)OP(=O)(O)OP(=O)(O)O)O2)c(=O)[nH]1` (stereo not drawn) [dGTP, reference compound] gave a Kd of 6 nM. For the molecule αS-dG6P-N3 [αS-dG6P-N3 (Rp-isomer)], under “read-out: KD”, the Kd worked out at 670 nM.
